A short description of this data set: in vitro. Conditions: human, hela cells, % viability.
Take `CC(=O)Nc1cccc(-c2cncc(NCCc3ccccn3)n2)c1` [CBK065359]: the viability at 28.5 h, 10 µM was 103%.

For the compound `CN(C)CCNC(=O)c1cccc(-c2cncc(NCc3ccc4c(c3)OCO4)n2)c1` [CBK065361], the viability at 28.5 h, 10 µM came to 110%.

In the case of `COc1ccc(C(C)C)cc1-c1cncc(N(C)CCN(C)C)n1` [CBK065364], the viability at 28.5 h, 10 µM turned out to be 105%.

Turning to `COc1ccc(-c2cncc(N3CCN(C)CC3)n2)cc1` [CBK065378], the viability at 28.5 h, 10 µM is 91.8%.

Consider `NC(=O)c1ccc(-c2cncc(NCc3ccco3)n2)cc1` [CBK065383], for which the viability at 28.5 h, 10 µM worked out at 85.6%.

With `NC(=O)c1ccc(-c2cncc(N3CCN(CCO)CC3)n2)cc1` [CBK065392], the viability at 28.5 h, 10 µM worked out at 96.5%.

Regarding `COc1cncc(-c2cncc(N3CCN(CCN(C)C)CC3)n2)c1` [CBK065393], the viability at 28.5 h, 10 µM was determined as 120%.

For the compound `COc1ccc(-c2cncc(NCc3ccncc3)n2)cc1` [CBK065394], the viability at 28.5 h, 10 µM amounted to 111%.

Turning to `COc1cncc(-c2cncc(Nc3cc(OC)c(OC)c(OC)c3)n2)c1` [CBK065397], the viability at 28.5 h, 10 µM turned out to be 95.1%.

As to `OCc1ccccc1-c1cncc(Nc2cccc(Cl)c2)n1` [CBK065400], the viability at 28.5 h, 10 µM is 102%.

As for `COc1cc(-c2cncc(NCCc3ccncc3)n2)cc(OC)c1OC` [CBK065405], the viability at 28.5 h, 10 µM was found to be 94.4%.

Turning to `CCNc1cncc(-c2ccc(C(N)=O)cc2)n1` [CBK065414], the viability at 28.5 h, 10 µM came to 96.2%.

Consider `CCCC/C=C/c1cncc(NCCO)n1` [CBK065419], for which the viability at 28.5 h, 10 µM turned out to be 109%.

In the case of `O=C(NCCO)c1cccc(-c2cncc(NCCCN3CCOCC3)n2)c1` [CBK065432], the viability at 28.5 h, 10 µM was 99.4%.

Consider `CCCNc1cncc(-c2cccc(CO)c2)n1` [CBK065433], for which the viability at 28.5 h, 10 µM worked out at 95.7%.

Take `COc1cncc(-c2cncc(Nc3ccccc3)n2)c1` [CBK065435]: the viability at 28.5 h, 10 µM amounted to 113%.

Regarding `CN(C)CCN1CCN(c2cncc(-c3cccc(C(=O)O)c3)n2)CC1` [CBK065443], the viability at 28.5 h, 10 µM was found to be 104%.

Turning to `CCCNc1cncc(-c2cccc(O)c2)n1` [CBK065447], the viability at 28.5 h, 10 µM turned out to be 109%.

As to `CN(C)CCN(C)c1cncc(-c2cccc(/C=C/C(=O)O)c2)n1` [CBK065451], the viability at 28.5 h, 10 µM was found to be 99.5%.

Regarding `CC(=O)Nc1cccc(-c2cncc(N[C@H](CO)C(C)C)n2)c1` [CBK065475], the viability at 28.5 h, 10 µM amounted to 98.2%.

With `COc1cc(-c2cncc(NC(C)CCCC(C)(C)O)n2)cc(OC)c1OC` (stereo not drawn) [CBK065481], the viability at 28.5 h, 10 µM was 102%.

Turning to `c1ccc(N2CCN(c3cncc(-c4cccs4)n3)CC2)nc1` [CBK065502], the viability at 28.5 h, 10 µM stood at 102%.

`CCCC/C=C/c1cncc(NC(C)CCCC(C)(C)O)n1` (stereo not drawn) [CBK065505]: the viability at 28.5 h, 10 µM was 104%.

`OCC1CCCN1c1cncc(-c2cccc3ccccc23)n1` (stereo not drawn) [CBK065509]: the viability at 28.5 h, 10 µM came to 91.1%.

As to `C[C@H](Nc1cncc(-c2cccc(CO)c2)n1)c1ccccc1` [CBK065512], the viability at 28.5 h, 10 µM worked out at 102%.

As for `COc1ccc(CNc2cncc(-c3ccc(C(C)C)cc3)n2)cc1` [CBK065514], the viability at 28.5 h, 10 µM stood at 119%.

Take `COc1ccc(C(C)C)cc1-c1cncc(NC(C)CCCC(C)(C)O)n1` (stereo not drawn) [CBK065521]: the viability at 28.5 h, 10 µM stood at 93.3%.

On to `COc1cc(CNc2cncc(-c3cccs3)n2)cc(OC)c1OC` [CBK065526], for which the viability at 28.5 h, 10 µM was determined as 106%.

For the compound `C[C@@H](Nc1cncc(-c2ccccc2CO)n1)c1ccccc1` [CBK065543], the viability at 28.5 h, 10 µM worked out at 106%.

For `COc1cc(-c2cncc(N(CCO)CCO)n2)cc(OC)c1OC` [CBK065544], the viability at 28.5 h, 10 µM stood at 112%.

For `CC(C)[C@@H](CO)Nc1cncc(-c2ccc3ccccc3c2)n1` [CBK065546], the viability at 28.5 h, 10 µM is 100%.

As for `COc1cc(-c2cncc(N[C@@H](C)c3ccccc3)n2)cc(OC)c1OC` [CBK065551], the viability at 28.5 h, 10 µM is 104%.

In the case of `OCc1cccc(-c2cncc(Nc3ccccc3)n2)c1` [CBK065576], the viability at 28.5 h, 10 µM turned out to be 97.4%.

Take `CCC(CO)Nc1cncc(-c2ccc(C(N)=O)cc2)n1` (stereo not drawn) [CBK065577]: the viability at 28.5 h, 10 µM came to 100%.

`Nc1ccc(-c2cncc(NCc3ccccc3)n2)cc1` [CBK065578]: the viability at 28.5 h, 10 µM was 109%.

With `CN(C)CCN(C)c1cncc(-c2cccc(C(F)(F)F)c2)n1` [CBK065584], the viability at 28.5 h, 10 µM came to 115%.

For `Clc1cccc(CNc2cncc(-c3cccs3)n2)c1` [CBK065609], the viability at 28.5 h, 10 µM was 105%.

On to `CN(C)c1cccc(-c2cncc(NCCCO)n2)c1` [CBK065619], for which the viability at 28.5 h, 10 µM amounted to 102%.

Turning to `Nc1ccc(-c2cncc(NCCc3ccccn3)n2)cc1` [CBK065632], the viability at 28.5 h, 10 µM was 103%.

Consider `COc1cc(Nc2cncc(-c3ccc(N)cc3)n2)cc(OC)c1OC` [CBK065642], for which the viability at 28.5 h, 10 µM was determined as 56.2%.

With `CN(C)CCN(C)c1cncc(-c2cccc(N(C)C)c2)n1` [CBK065659], the viability at 28.5 h, 10 µM stood at 100%.

Regarding `CCN(CC)CCN1CCN(c2cncc(-c3ccc(F)cc3F)n2)CC1` [CBK065668], the viability at 28.5 h, 10 µM was determined as 107%.

For `C[C@@H](Nc1cncc(-c2ccc(F)cc2F)n1)c1ccccc1` [CBK065676], the viability at 28.5 h, 10 µM was 87%.

Consider `COc1ccc(N2CCN(c3cncc(-c4cccs4)n3)CC2)cc1OC` [CBK065687], for which the viability at 28.5 h, 10 µM turned out to be 104%.

`CC(=O)Nc1ccc(-c2cncc(N(C)CCN(C)C)n2)cc1` [CBK065694]: the viability at 28.5 h, 10 µM came out at 97.8%.

With `CN(C)CCN(C)c1cncc(-c2cccc3ccccc23)n1` [CBK065709], the viability at 28.5 h, 10 µM amounted to 106%.

Regarding `CC(=O)Nc1ccc(-c2cncc(N3CCN(CCN4CCCC4)CC3)n2)cc1` [CBK065710], the viability at 28.5 h, 10 µM was determined as 103%.

Take `C[C@@H](Nc1cncc(-c2cccs2)n1)c1ccccc1` [CBK065711]: the viability at 28.5 h, 10 µM amounted to 108%.

Take `c1ccc(CN2CCN(c3cncc(-c4cccs4)n3)CC2)nc1` [CBK065734]: the viability at 28.5 h, 10 µM amounted to 98.1%.

With `CCC(CO)Nc1cncc(-c2cc(C(C)C)ccc2OC)n1` (stereo not drawn) [CBK065743], the viability at 28.5 h, 10 µM is 91.7%.

For `Fc1ccc(-c2cncc(NCCc3cccnc3)n2)cc1Cl` [CBK065745], the viability at 28.5 h, 10 µM came to 91.3%.

As to `OCCC1CCCCN1c1cncc(-c2cccs2)n1` (stereo not drawn) [CBK065758], the viability at 28.5 h, 10 µM was found to be 104%.

For the compound `Clc1cccc(Nc2cncc(-c3cccc4ccccc34)n2)c1` [CBK065764], the viability at 28.5 h, 10 µM stood at 93.4%.

As to `OCCN(CCO)c1cncc(-c2cccs2)n1` [CBK065766], the viability at 28.5 h, 10 µM is 95.4%.

With `Clc1ccc(-c2cncc(NCCc3ccncc3)n2)cc1` [CBK065787], the viability at 28.5 h, 10 µM is 99.5%.

`c1csc(-c2cncc(NCCc3ccncc3)n2)c1` [CBK065797]: the viability at 28.5 h, 10 µM came out at 105%.

In the case of `C[C@H](Nc1cncc(-c2ccc3ccccc3c2)n1)c1ccccc1` [CBK065799], the viability at 28.5 h, 10 µM was found to be 108%.

For `O=C(O)C1CCN(c2cncc(-c3ccc4ccccc4c3)n2)CC1` [CBK065801], the viability at 28.5 h, 10 µM came to 95.5%.

Turning to `C[C@H](Nc1cncc(-c2cccnc2)n1)c1ccccc1` [CBK065807], the viability at 28.5 h, 10 µM was 96.7%.

In the case of `Fc1ccc(Nc2cncc(-c3cccs3)n2)cc1Cl` [CBK065813], the viability at 28.5 h, 10 µM was 94.3%.

Turning to `COc1ccc(N2CCN(c3cncc(-c4ccc(C(N)=O)cc4)n3)CC2)cc1OC` [CBK065820], the viability at 28.5 h, 10 µM was 93.8%.

On to `COc1cc(CNc2cncc(-c3ccc(F)cc3F)n2)cc(OC)c1OC` [CBK065826], for which the viability at 28.5 h, 10 µM came to 115%.

With `CCNc1cncc(-c2ccccc2)n1` [CBK065847], the viability at 28.5 h, 10 µM is 85.5%.

As to `OCCNc1cncc(-c2ccccc2)n1` [CBK065857], the viability at 28.5 h, 10 µM stood at 92%.

Turning to `CN1CCCN(c2cncc(-c3ccc(F)cc3F)n2)CC1` [CBK065858], the viability at 28.5 h, 10 µM stood at 97.9%.

Consider `CCOc1ccc(-c2cncc(N3CCN(C(=O)c4ccco4)CC3)n2)cc1` [CBK065860], for which the viability at 28.5 h, 10 µM came to 109%.

As to `CCOc1ccc(-c2cncc(N3CCC(C(=O)O)CC3)n2)cc1` [CBK065870], the viability at 28.5 h, 10 µM was 97.2%.

As to `CCOc1ccc(-c2cncc(NC3CCC(O)CC3)n2)cc1` (stereo not drawn) [CBK065877], the viability at 28.5 h, 10 µM was found to be 88.9%.

As for `CC(C)[C@H](CO)Nc1cncc(-c2ccc(F)cc2F)n1` [CBK065883], the viability at 28.5 h, 10 µM came out at 92.3%.

As for `CC(=O)Nc1ccc(-c2cncc(NC3CCC(O)CC3)n2)cc1` (stereo not drawn) [CBK065886], the viability at 28.5 h, 10 µM was determined as 93.9%.

Regarding `CC(=O)Nc1ccc(-c2cncc(NC(C)CCCC(C)(C)O)n2)cc1` (stereo not drawn) [CBK065894], the viability at 28.5 h, 10 µM turned out to be 91.1%.

Take `OCC1CCCN1c1cncc(-c2ccc3c(c2)OCO3)n1` (stereo not drawn) [CBK065908]: the viability at 28.5 h, 10 µM worked out at 100%.

As to `Cc1ccc(-c2cncc(N3CCN(CCO)CC3)n2)cc1C` [CBK065912], the viability at 28.5 h, 10 µM stood at 102%.

With `FC(F)(F)Oc1cccc(-c2cncc(NCc3ccncc3)n2)c1` [CBK065926], the viability at 28.5 h, 10 µM is 104%.

`OCCN1CCN(c2cncc(-c3cccc(OC(F)(F)F)c3)n2)CC1` [CBK065941]: the viability at 28.5 h, 10 µM is 108%.

As to `Cc1ccc(-c2cncc(N3CCCC3CO)n2)cc1C` (stereo not drawn) [CBK065945], the viability at 28.5 h, 10 µM was 89.1%.

`CN1CCCN(c2cncc(-c3cccc(OC(F)(F)F)c3)n2)CC1` [CBK065949]: the viability at 28.5 h, 10 µM was found to be 102%.

Take `C[C@H](Nc1cncc(-c2ccc3c(c2)OCO3)n1)c1ccccc1` [CBK065962]: the viability at 28.5 h, 10 µM was found to be 90.3%.

As for `Cc1ccc(-c2cncc(NCc3cccs3)n2)cc1C` [CBK065967], the viability at 28.5 h, 10 µM was found to be 106%.

As for `CCC(CO)Nc1cncc(-c2ccc3c(c2)OCO3)n1` (stereo not drawn) [CBK065970], the viability at 28.5 h, 10 µM came to 98.4%.

As to `CCOc1cccc(-c2cncc(N3CCN(c4ccccn4)CC3)n2)c1` [CBK065985], the viability at 28.5 h, 10 µM came to 91.5%.

As for `Cc1ccc(-c2cncc(N(C)CCN(C)C)n2)cc1C` [CBK065990], the viability at 28.5 h, 10 µM was determined as 112%.

With `CCOc1cccc(-c2cncc(N3CCCC3CO)n2)c1` (stereo not drawn) [CBK066004], the viability at 28.5 h, 10 µM came to 89.7%.

In the case of `C[C@H](Nc1cncc(-c2cccc(C(=O)NCCO)c2)n1)c1ccccc1` [CBK066007], the viability at 28.5 h, 10 µM turned out to be 108%.

A word on the viability: it is a read-out of living cells in per cent, often relative to untreated cells.

(Values after publication PMC12040169 (PLOS Biology, 2025).)
